Measured values: publication PMC3934494 (Chemistry & biology, 2013)
Like-named read-outs stand apart in the source and are kept apart here.

Columns and labels:
WT clade B virus = assay: PhenoSense HIV antiviral assay; format: cell-based
Microsomal stability [1] = format: in vitro ADME; conditions: rat microsomes
Microsomal stability [2] = format: in vitro ADME; conditions: human microsomes
WT HIV-1 protease = WT HIV-1 protease (Human immunodeficiency virus type 1 group M subtype B, UniProt P04585); conditions: FDA-approved drugs, ref Nalam, et al., 2010; cited from earlier work
[3] = tested on: 12 patient-derived drug resistant viruses; assay: PhenoSense HIV antiviral assay; format: cell-based
[4] = target: HIV-1 protease variant M3: I50V/A71V (Human immunodeficiency virus type 1 group M subtype B, UniProt P04585, A559V/I538V); assay: FRET-based enzymatic assay, enzyme inhibition constants; format: biochemical; conditions: M3 versus WT protease

Compound | EC50 (WT clade B virus; WT clade B virus) | Microsomal Stability (Avg. % Fraction Remaining) at 30 Minutes Rat (Microsomal stability [1]; RTV +) [%] | Microsomal Stability (Avg. % Fraction Remaining) at 30 Minutes Rat (Microsomal stability [1]; RTV −) [%] | Microsomal Stability (Avg. % Fraction Remaining) at 60 Minutes Rat (Microsomal stability [1]; RTV +) [%] | Microsomal Stability (Avg. % Fraction Remaining) at 60 Minutes Rat (Microsomal stability [1]; RTV −) [%] | Microsomal CLint Rat (Microsomal stability [1]; RTV +) [μL min^-1 mg^1] | Microsomal T1/2 Rat (Microsomal stability [1]; RTV +) [min] | Microsomal CLint Rat (Microsomal stability [1]; RTV −) [μL min^-1 mg^1] | Microsomal T1/2 Rat (Microsomal stability [1]; RTV −) [min] | Microsomal Stability (Avg. % Fraction Remaining) at 30 Minutes Human (Microsomal stability [2]; RTV +) [%] | Microsomal Stability (Avg. % Fraction Remaining) at 30 Minutes Human (Microsomal stability [2]; RTV −) [%] | Microsomal Stability (Avg. % Fraction Remaining) at 60 Minutes Human (Microsomal stability [2]; RTV +) [%] | Microsomal Stability (Avg. % Fraction Remaining) at 60 Minutes Human (Microsomal stability [2]; RTV −) [%] | Microsomal CLint Human (Microsomal stability [2]; RTV +) [μL min^-1 mg^1] | Microsomal T1/2 Human (Microsomal stability [2]; RTV +) [min] | Microsomal CLint Human (Microsomal stability [2]; RTV −) [μL min^-1 mg^1] | Microsomal T1/2 Human (Microsomal stability [2]; RTV −) [min] | further results
CC[C@H](C)CN(C[C@@H](O)[C@H](Cc1ccccc1)NC(=O)O[C@H]1CO[C@H]2OCC[C@H]21)S(=O)(=O)c1ccc2c(c1)OCO2 [10d] | more potent | 0 | 0 | 0 | 0 | 771 | 3 | 987 | 2 | 80 | 9 | 60 | 4 | 24 | 85 | 232 | 9 | 
CC[C@H](C)CN(C[C@@H](O)[C@H](Cc1ccccc1)NC(=O)O[C@H]1CO[C@H]2OCC[C@H]21)S(=O)(=O)c1ccc(N)cc1 [10a] |  | 51 | 24 | 35 | 9 | 67 | 31 | 129 | 16 | 81 | 42 | 66 | 19 | 21 | 99 | 81 | 26 | 
Cc1cccc(C)c1OCC(=O)N[C@@H](Cc1ccccc1)[C@@H](O)C[C@H](Cc1ccccc1)NC(=O)[C@H](C(C)C)N1CCCNC1=O [LPV] |  |  |  |  |  |  |  |  |  |  |  |  |  |  |  |  |  | Ki (WT HIV-1 protease): 0.005 nM
CC[C@H](C)CN(C[C@@H](O)[C@H](Cc1ccccc1)NC(=O)O[C@H]1CO[C@H]2OCC[C@H]21)S(=O)(=O)c1ccc(OC)cc1 [10b] | more potent | 0 | 0 | 0 | 0 | 518 | 4 | 885 | 2 | 79 | 0 | 68 | 0 | 19 | 110 | 776 | 3 | EC50 ([3]; read-out: average EC50, average against 12 different drug resistant strains): 1.33 nM
CCC(CC)CN(C[C@@H](O)[C@H](Cc1ccccc1)NC(=O)O[C@H]1CO[C@H]2OCC[C@H]21)S(=O)(=O)c1ccc(CO)cc1 [11c] |  | 79 | 0 | 57 | 0 | 27 | 78 | 907 | 2 | 64 | 0 | 69 | 0 | 26 | 81 | 829 | 3 | 
CC(C)CN(C[C@@H](O)[C@H](Cc1ccccc1)NC(=O)O[C@H]1CO[C@H]2OCC[C@H]21)S(=O)(=O)c1ccc(N)cc1 [DRV, Darunavir] |  |  |  |  |  |  |  |  |  |  |  |  |  |  |  |  |  | EC50 ([3]; Human immunodeficiency virus 1, read-out: average EC50): 5.98 nM; antiviral potency ([3]; MDR strains with the I50V protease mutation): loses significant potency; EC50 (WT clade B virus): 0.4 nM; decrease in M3 susceptibility compared to WT protease [4]: 50 fold
CCC(CC)CN(C[C@@H](O)[C@H](Cc1ccccc1)NC(=O)O[C@H]1CO[C@H]2OCC[C@H]21)S(=O)(=O)c1ccc(OC)cc1 [11b] | more potent | 50 | 18 | 20 | 19 | 74 | 28 | 150 | 14 | 75 | 0 | 66 | 0 | 23 | 90 | 844 | 2 | 
CCC(CC)CN(C[C@@H](O)[C@H](Cc1ccccc1)NC(=O)O[C@H]1CO[C@H]2OCC[C@H]21)S(=O)(=O)c1ccc2c(c1)OCO2 [11d] |  | 21 | 0 | 4 | 0 | 156 | 13 | 712 | 3 | 55 | 0 | 46 | 0 | 46 | 45 | 617 | 3 | 
CC[C@H](C)CN(C[C@@H](O)[C@H](Cc1ccccc1)NC(=O)O[C@H]1CO[C@H]2OCC[C@H]21)S(=O)(=O)c1ccc(CO)cc1 [10c] |  | 45 | 0 | 22 | 0 | 79 | 26 | 664 | 3 | 93 | 0 | 89 | 0 | 8 | >180 | 590 | 4 | 
